Source: ChEMBL document CHEMBL3885881, “DrugMatrix”

Species on record: Rattus norvegicus
Test: DrugMatrix - Regimen: Daily Repeat
Assay type: toxicity, organism-based, Sprague-Dawley
Parameters: regimen Daily Repeat, gender Male, age 6-8 weeks
Conditions: in vivo, po, route oral GAVAGE, dose level Low; for ABSOLUTE BASOPHIL / ABSOLUTE EOSINOPHIL / ABSOLUTE LYMPHOCYTE / ABSOLUTE MONOCYTE / ABSOLUTE SEGMENTED NEUTROPHIL / BASOPHIL / EOSINOPHIL / ERYTHROCYTE COUNT / HEMATOCRIT / HEMOGLOBIN / LEUKOCYTE COUNT / LYMPHOCYTE / MEAN CORPUSCULAR HEMOGLOBIN / MEAN CORPUSCULAR HEMOGLOBIN CONCENTRATION / MEAN CORPUSCULAR VOLUME / MONOCYTE / NEUTROPHIL / NUCLEATED RED BLOOD CELLS / PLATELET COUNT: tissue Blood; for ALANINE AMINOTRANSFERASE / ALBUMIN / ALKALINE PHOSPHATASE / ASPARTATE AMINOTRANSFERASE / BLOOD UREA NITROGEN / CARBON DIOXIDE / CHLORIDE / CHOLESTEROL / CREATINE PHOSPHOKINASE / CREATININE / GLUCOSE / LACTATE DEHYDROGENASE / LIPASE / PHOSPHORUS / POTASSIUM / SODIUM / TOTAL BILIRUBIN / TOTAL PROTEIN / URIC ACID: tissue Plasma
[1] = 34 mg/kg, 72 h, time 3 day, vehicle .5 % CMC
[2] = 34 mg/kg, 120 h, time 5 day, vehicle .5 % CMC
[3] = 50 mg/kg, 72 h, time 3 day, […]
[4] = 50 mg/kg, 120 h, time 5 day, […]

SMILES: NS(=O)(=O)c1cc(C(=O)O)c(NCc2ccco2)cc1Cl [FUROSEMIDE]
- ABSOLUTE BASOPHIL [1]: 0 CELLS/uL
- ABSOLUTE EOSINOPHIL [1]: 0 CELLS/uL
- ABSOLUTE LYMPHOCYTE [1]: 13709 CELLS/uL
- ABSOLUTE MONOCYTE [1]: 86 CELLS/uL
- ABSOLUTE SEGMENTED NEUTROPHIL [1]: 1038.33 CELLS/uL
- BASOPHIL [1]: 0%
- EOSINOPHIL [1]: 0%
- ERYTHROCYTE COUNT [1]: 5.45 x10E6/uL
- HEMATOCRIT [1]: 33.7%
- HEMOGLOBIN [1]: 13.47 G/DL
- LEUKOCYTE COUNT [1]: 14.83 x10E3/uL
- LYMPHOCYTE [1]: 92.33%
- MEAN CORPUSCULAR HEMOGLOBIN [1]: 24.7 pg
- MEAN CORPUSCULAR HEMOGLOBIN CONCENTRATION [1]: 39.97 G/DL
- MEAN CORPUSCULAR VOLUME [1]: 61.87 fL
- MONOCYTE [1]: 0.67%
- NEUTROPHIL [1]: 7%
- NUCLEATED RED BLOOD CELLS [1]: 0 /100WBC
- PLATELET COUNT [1]: 1150 x10E3/uL
- ALANINE AMINOTRANSFERASE [1]: 50.33 u/L
- ALBUMIN [1]: 4.17 G/DL
- ALKALINE PHOSPHATASE [1]: 404.33 u/L
- ASPARTATE AMINOTRANSFERASE [1]: 82.67 u/L
- BLOOD UREA NITROGEN [1]: 16 mg/dL
- CARBON DIOXIDE [1]: 29.33 mmol/L
- CHLORIDE [1]: 99 MEQ/L
- CHOLESTEROL [1]: 46.33 mg/dL
- CREATINE PHOSPHOKINASE [1]: 391.33 u/L
- CREATININE [1]: 0.19 mg/dL
- GLUCOSE [1]: 138.67 mg/dL
- LACTATE DEHYDROGENASE [1]: 200.67 u/L
- LIPASE [1]: 9 u/L
- PHOSPHORUS [1]: 10.7 mg/dL
- POTASSIUM [1]: 6.62 MEQ/L
- SODIUM [1]: 143.97 MEQ/L
- TOTAL BILIRUBIN [1]: 0.33 mg/dL
- TOTAL PROTEIN [1]: 5.77 G/DL
- URIC ACID [1]: 1.33 mg/dL
- ABSOLUTE BASOPHIL [2]: 0 CELLS/uL
- ABSOLUTE EOSINOPHIL [2]: 0 CELLS/uL
- ABSOLUTE LYMPHOCYTE [2]: 14118 CELLS/uL
- ABSOLUTE MONOCYTE [2]: 111.33 CELLS/uL
- ABSOLUTE SEGMENTED NEUTROPHIL [2]: 770.67 CELLS/uL
- BASOPHIL [2]: 0%
- EOSINOPHIL [2]: 0%
- ERYTHROCYTE COUNT [2]: 5.69 x10E6/uL
- HEMATOCRIT [2]: 36.23%
- HEMOGLOBIN [2]: 14 G/DL
- LEUKOCYTE COUNT [2]: 15 x10E3/uL
- LYMPHOCYTE [2]: 94%
- MEAN CORPUSCULAR HEMOGLOBIN [2]: 24.6 pg
- MEAN CORPUSCULAR HEMOGLOBIN CONCENTRATION [2]: 38.73 G/DL
- MEAN CORPUSCULAR VOLUME [2]: 63.7 fL
- MONOCYTE [2]: 0.67%
- NEUTROPHIL [2]: 5.33%
- NUCLEATED RED BLOOD CELLS [2]: 0.33 /100WBC
- PLATELET COUNT [2]: 1289.67 x10E3/uL
- ALANINE AMINOTRANSFERASE [2]: 54.33 u/L
- ALBUMIN [2]: 4.37 G/DL
- ALKALINE PHOSPHATASE [2]: 439.33 u/L
- ASPARTATE AMINOTRANSFERASE [2]: 88 u/L
- BLOOD UREA NITROGEN [2]: 23 mg/dL
- CARBON DIOXIDE [2]: 27 mmol/L
- CHLORIDE [2]: 100.33 MEQ/L
- CHOLESTEROL [2]: 42.67 mg/dL
- CREATINE PHOSPHOKINASE [2]: 236.67 u/L
- CREATININE [2]: 0.22 mg/dL
- GLUCOSE [2]: 162.33 mg/dL
- LACTATE DEHYDROGENASE [2]: 196.67 u/L
- LIPASE [2]: 8.67 u/L
- PHOSPHORUS [2]: 11.1 mg/dL
- POTASSIUM [2]: 6.53 MEQ/L
- SODIUM [2]: 144.3 MEQ/L
- TOTAL BILIRUBIN [2]: 0.2 mg/dL
- TOTAL PROTEIN [2]: 6.13 G/DL
- URIC ACID [2]: 1.67 mg/dL

SMILES: COC(=O)Nc1nc2ccc(Sc3ccccc3)cc2[nH]1 [FENBENDAZOLE]
- ABSOLUTE BASOPHIL [3]: 0 CELLS/uL
- ABSOLUTE EOSINOPHIL [3]: 0 CELLS/uL
- ABSOLUTE LYMPHOCYTE [3]: 13096 CELLS/uL
- ABSOLUTE MONOCYTE [3]: 168.67 CELLS/uL
- ABSOLUTE SEGMENTED NEUTROPHIL [3]: 1268.67 CELLS/uL
- BASOPHIL [3]: 0%
- EOSINOPHIL [3]: 0%
- ERYTHROCYTE COUNT [3]: 5.64 x10E6/uL
- HEMATOCRIT [3]: 35.13%
- HEMOGLOBIN [3]: 13.37 G/DL
- LEUKOCYTE COUNT [3]: 14.53 x10E3/uL
- LYMPHOCYTE [3]: 90.33%
- MEAN CORPUSCULAR HEMOGLOBIN [3]: 23.7 pg
- MEAN CORPUSCULAR HEMOGLOBIN CONCENTRATION [3]: 38.07 G/DL
- MEAN CORPUSCULAR VOLUME [3]: 62.37 fL
- MONOCYTE [3]: 1%
- NEUTROPHIL [3]: 8.67%
- NUCLEATED RED BLOOD CELLS [3]: 0 /100WBC
- PLATELET COUNT [3]: 1087 x10E3/uL
- ALANINE AMINOTRANSFERASE [3]: 79 u/L
- ALBUMIN [3]: 4.07 G/DL
- ALKALINE PHOSPHATASE [3]: 536.67 u/L
- ASPARTATE AMINOTRANSFERASE [3]: 137.67 u/L
- BLOOD UREA NITROGEN [3]: 15 mg/dL
- CARBON DIOXIDE [3]: 27.33 mmol/L
- CHLORIDE [3]: 99.33 MEQ/L
- CHOLESTEROL [3]: 87.33 mg/dL
- CREATINE PHOSPHOKINASE [3]: 508.67 u/L
- CREATININE [3]: 0.16 mg/dL
- GLUCOSE [3]: 146.33 mg/dL
- LACTATE DEHYDROGENASE [3]: 359 u/L
- LIPASE [3]: 10.67 u/L
- PHOSPHORUS [3]: 13.07 mg/dL
- POTASSIUM [3]: 6.5 MEQ/L
- SODIUM [3]: 143.5 MEQ/L
- TOTAL BILIRUBIN [3]: 0.3 mg/dL
- TOTAL PROTEIN [3]: 5.6 G/DL
- URIC ACID [3]: 1.7 mg/dL
- ABSOLUTE BASOPHIL [4]: 0 CELLS/uL
- ABSOLUTE EOSINOPHIL [4]: 126 CELLS/uL
- ABSOLUTE LYMPHOCYTE [4]: 15732 CELLS/uL
- ABSOLUTE MONOCYTE [4]: 245.33 CELLS/uL
- ABSOLUTE SEGMENTED NEUTROPHIL [4]: 1830 CELLS/uL
- BASOPHIL [4]: 0%
- EOSINOPHIL [4]: 0.67%
- ERYTHROCYTE COUNT [4]: 6.25 x10E6/uL
- HEMATOCRIT [4]: 37.37%
- HEMOGLOBIN [4]: 14.73 G/DL
- LEUKOCYTE COUNT [4]: 17.93 x10E3/uL
- LYMPHOCYTE [4]: 88%
- MEAN CORPUSCULAR HEMOGLOBIN [4]: 23.57 pg
- MEAN CORPUSCULAR HEMOGLOBIN CONCENTRATION [4]: 39.43 G/DL
- MEAN CORPUSCULAR VOLUME [4]: 59.83 fL
- MONOCYTE [4]: 1.33%
- NEUTROPHIL [4]: 10%
- NUCLEATED RED BLOOD CELLS [4]: 0 /100WBC
- PLATELET COUNT [4]: 1051.67 x10E3/uL
- ALANINE AMINOTRANSFERASE [4]: 164.33 u/L
- ALBUMIN [4]: 4.1 G/DL
- ALKALINE PHOSPHATASE [4]: 601.67 u/L
- ASPARTATE AMINOTRANSFERASE [4]: 203.67 u/L
- BLOOD UREA NITROGEN [4]: 13.67 mg/dL
- CARBON DIOXIDE [4]: 26.33 mmol/L
- CHLORIDE [4]: 99.33 MEQ/L
- CHOLESTEROL [4]: 85.33 mg/dL
- CREATINE PHOSPHOKINASE [4]: 602.33 u/L
- CREATININE [4]: 0.19 mg/dL
- GLUCOSE [4]: 143.67 mg/dL
- LACTATE DEHYDROGENASE [4]: 615.33 u/L
- LIPASE [4]: 11 u/L
- PHOSPHORUS [4]: 11.27 mg/dL
- POTASSIUM [4]: 6.24 MEQ/L
- SODIUM [4]: 142.9 MEQ/L
- TOTAL BILIRUBIN [4]: 0.27 mg/dL
- TOTAL PROTEIN [4]: 5.6 G/DL
- URIC ACID [4]: 2.17 mg/dL
